The values below come from US10787453B2, “Octahydropyrrolopyrroles their preparation and use” (The Trustees of Columbia University in the City of New York, priority 2013, dated 2020).

In series [1] the target is T1, RBP4-TTR interaction (Homo sapiens (Human), UniProt P02753). Kind of series: TR-FRET (HTRF) assay for retinol-induced RBP4-TTR interaction. Type of series: biochemical. The conditions noted are these: for IC50: in the presence of 1 μM retinol, read-out: HTRF assay for antagonists of RBP4-TTR interaction IC50. The source says: TR-FRET Assay for Retinol-Induced RBP4-TTR Interaction
Binding of a desired RBP4 antagonist displaces retinol and induces hindrance for RBP4-TTR interaction resulting in the decreased FRET signal (FIG. 7). Bacterially expressed MBP-RBP4 and untagged TTR were used in this assay. For the use in the TR-FRET assay the maltose binding protein (MBP)-tagged human RBP4 fragment (amino acids 19-201) was expressed in the Gold(DE3)pLysS E. coli strain (Stratagene) using the pMAL-c4x vector. Following cell lysis, recombinant RBP4 was purified from the soluble fraction using the ACTA FPLC system (GE Healthcare) equipped with the 5-ml the MBP Trap HP column. Human untagged TTR was purchased from Calbiochem. Untagged TTR was labeled directly with Eu^3+ Cryptate-NHS using the HTRF Cryptate Labeling kit from CisBio following the manufacturer's recommendations. HTRF assay was performed in white low volume 384 well plates (Greiner-Bio) in a final assay volume of 16 μl per well. The reaction buffer contained 10 mM Tris-HCl pH 7.5, 1 mM DTT, 0.05% NP-40, 0.05% Prionex, 6% glycerol, and 400 mM KF. Each reaction contained 60 nM MBP-RBP4 and 2 nM TTR-Eu along with 26.7 nM of anti-MBP antibody conjugated with d2 (Cisbio). Titration of test compounds in this assay was conducted in the presence of 1 μM retinol. All reactions were assembled in the dark under dim red light and incubated overnight at +4° C. wrapped in aluminum foil. TR-FRET signal was measured in the SpectraMax M5e Multimode Plate Reader (Molecular Device). Fluorescence was excited at 337 nm and two readings per well were taken: Reading 1 for time-gated energy transfer from Eu(K) to d2 (337 nm excitation, 668 nm emission, counting delay 75 microseconds, counting window 100 microseconds) and Reading 2 for Eu(K) time-gated fluorescence (337 nm excitation, 620 nm emission, counting delay 400 microseconds, counting window 400 microseconds). The TR-FRET signal was expressed as the ratio of fluorescence intensity: Flu665/Flu620×10,000.
For orientation: TR-FRET usually uses a lanthanide donor and a delayed reading to cut background.

In series [2] the target is T2, RBP4 (Homo sapiens (Human), UniProt P02753). Kind of series: Scintillation proximity RBP4 binding assay (SPA). As to conditions: for IC50: 10 nM 3H-Retinol, 50 nM biotinylated RBP4. Here is the method: Scintillation Proximity RBP4 Binding Assay
Untagged human RBP4 purified from urine of tubular proteinuria patients was purchased from Fitzgerald Industries International. It was biotinylated using the EZ-Link Sulfo-NHS-LC-Biotinylation kit from Pierce following the manufacturer's recommendations. Binding experiments were performed in 96-well plates (OptiPlate, PerkinElmer) in a final assay volume of 100 μl per well in SPA buffer (1×PBS, pH 7.4, 1 mM EDTA, 0.1% BSA, 0.5% CHAPS). The reaction mix contained 10 nM ^3H-Retinol (48.7 Ci/mmol; PerkinElmer), 0.3 mg/well Streptavidin-PVT beads, 50 nM biotinylated RBP4 and a test compound. Nonspecific binding was determined in the presence of 20 μM of unlabeled retinol. The reaction mix was assembled in the dark under dim red light. The plates were sealed with clear tape (TopSeal-A: 96-well microplate, PerkinElmer), wrapped in the aluminum foil, and allowed to equilibrate 6 hours at room temperature followed by overnight incubation at +4° C. Radiocounts were measured using a TopCount NXT counter (Packard Instrument Company).

The test system of series [3] is wild-type and Abca4−/− mice. Kind of series: Efficacy in a mammalian model. Format: in vivo, mouse. As to conditions: orally dosed for 3 weeks at 30 mg/kg. Here is the method: The effectiveness of the compounds listed in Example 1-46 are tested in wild-type and Abca4−/− mice. The Abca4−/− mouse model manifests accelerated accumulation of lipofuscin in the RPE and is considered a pre-clinical efficacy model for a drug reducing lipofuscin accumulation. Compounds are orally dosed for 3 weeks at 30 mg/kg. There is a reduction in the serum RBP4 level in treated animals. The levels of A2E/isoA2E and other bisretinoids are reduced in treated mice.
The effectiveness of the octahydropyrrolopyrroles 66 and 67 are tested in wild-type and Abca4−/− mice. The Abca4−/− mouse model manifests accelerated accumulation of lipofuscin in the RPE and is considered a pre-clinical efficacy model for a drug reducing lipofuscin accumulation. Compounds are orally dosed for 3 weeks at 30 mg/kg. There is a reduction in the serum RBP4 level in treated animals. The levels of A2E/isoA2E and other bisretinoids are reduced in treated mice.
The effectiveness of the octahydropyrrolopyrroles of the present invention are tested in wild-type and Abca4−/− mice. The Abca4−/− mouse model manifests accelerated accumulation of lipofuscin in the RPE and is considered a pre-clinical efficacy model for a drug reducing lipofuscin accumulation. Compounds are orally dosed for 3 weeks at 30 mg/kg. There is a reduction in the serum RBP4 level in treated animals. The levels of A2E/isoA2E and other bisretinoids are reduced in treated mice.

The target in series [4] is T2, RBP4. The conditions noted are these: cited from earlier work.
A further series relates to Abca4−/− mice. The conditions noted are these: cited from earlier work.
Series [5] concerns the target T1, RBP4-TTR interaction. The conditions noted are these: cited from earlier work.
The subject of the next series is mice. The conditions noted are these: cited from earlier work.
Series [6] deals with retinal pigment epithelium cells. The conditions noted are these: many cell types, including retinal pigment epithelium cells; cited from earlier work.
A further series deals with serum RBP4 and retinol. As to conditions: in vivo; cited from earlier work.

The term IC50 denotes the midpoint of a concentration-inhibition curve.

For the molecule `Cc1ccc2nnc(C(=O)N3C[C@@H]4CN(c5ccccc5C(F)(F)F)C[C@@H]4C3)n2c1` [Compound 65, (6-Methyl-[1,2,4]triazolo[4,3-a]pyridin-3-yl)((3aR,6aS)-5-(2-(trifluoromethyl)phenyl)hexahydropyrrolo[3,4-c]pyrrol-2 (1H)-yl)methanone], at RBP4-TTR interaction [1], the “antagonism of retinol-dependent RBP4-TTR interaction (HTRF), in words” value was “antagonized retinol-dependent RBP4-TTR interaction” and the IC50 stood at 20.8 nM. On RBP4 [2], the “RBP4 binding (SPA), in words” value was “binded to RBP4” and the IC50 came to 1.68 nM.
With `COC(=O)c1cc(C)nc(N2C[C@@H]3CN(c4ccccc4C(F)(F)F)C[C@@H]3C2)n1` [Compound 66, Methyl 6-methyl-2-((3aR,6aS)-5-(2-(trifluoromethyl)phenyl)hexahydropyrrolo[3,4-c]pyrrol-2(1H)-yl)pyrimidine-4-carboxylate], at RBP4-TTR interaction [1], the “antagonism of retinol-dependent RBP4-TTR interaction (HTRF), in words” value is reported as “antagonized retinol-dependent RBP4-TTR interaction” and the IC50 turned out to be 74 nM. At RBP4 [2], the “RBP4 binding (SPA), in words” value is on record as “binded to RBP4” and the IC50 came out at 3.9 nM. Besides, in [3], the “levels of A2-DHP-PE and atRAL di-PE” value was “also reduced”; the “levels of A2E/isoA2E and other bisretinoids” value is “reduced”; the “serum RBP4 level” value is listed as “reduction”.
With `Cc1cc(C(=O)O)nc(N2C[C@@H]3CN(c4ccccc4C(F)(F)F)C[C@@H]3C2)n1` [Compound 67, 6-Methyl-2-((3aR,6aS)-5-(2-(trifluoromethyl)phenyl)hexahydropyrrolo[3,4-c]pyrrol-2(1H)-yl)pyrimidine-4-carboxylic Acid], in [3], the “levels of A2-DHP-PE and atRAL di-PE” value is listed as “also reduced”; the “levels of A2E/isoA2E and other bisretinoids” value was “reduced”; the “serum RBP4 level” value is “reduction”.
For `CC1=C(/C=C/C(C)=C/C=C/C(C)=C/C(=O)Nc2ccc(O)cc2)C(C)(C)CCC1` [fenretinide, N-(4-hydroxy-phenyl)retinamide], at RBP4 [4], the “binding to RBP4” value is listed as “bind to RBP4” and the “displacement of all-trans retinol from RBP4” value was “displace all-trans retinol from RBP4”. Besides, in the series with Abca4−/− mice, the A2E production entry is on record as “reduced A2E production”. Also, the RBP4-TTR interaction entry at RBP4-TTR interaction [5] is “disrupt the RBP4-TTR interaction”. Also, the formation of hemangiosarcomas result with mice is recorded as “stimulate formation of hemangiosarcomas”. The induction of apoptosis entry in series [6] is listed as “extremely active inducer of apoptosis”. In the series with serum RBP4 and retinol, the “ocular all-trans retinol uptake” value is “inhibit ocular all-trans retinol uptake”; the “serum RBP4 and retinol” value is “reduce serum RBP4 and retinol”.
